Key:
[1] = molecular target: T1, recombinant human ALK5 (TGF-βR1) protein (Homo sapiens, UniProt P36897); assay: Biochemical ALK5 (TGF-βR1) assay to measure pKi (LANCE Ultra ULight kinase assay); conditions: apparent pKi, converted from pIC50 using the Cheng-Prusoff equation
T1 construct: purchased Life Technologies PR9075A
T1 sequence (P36897 34-503): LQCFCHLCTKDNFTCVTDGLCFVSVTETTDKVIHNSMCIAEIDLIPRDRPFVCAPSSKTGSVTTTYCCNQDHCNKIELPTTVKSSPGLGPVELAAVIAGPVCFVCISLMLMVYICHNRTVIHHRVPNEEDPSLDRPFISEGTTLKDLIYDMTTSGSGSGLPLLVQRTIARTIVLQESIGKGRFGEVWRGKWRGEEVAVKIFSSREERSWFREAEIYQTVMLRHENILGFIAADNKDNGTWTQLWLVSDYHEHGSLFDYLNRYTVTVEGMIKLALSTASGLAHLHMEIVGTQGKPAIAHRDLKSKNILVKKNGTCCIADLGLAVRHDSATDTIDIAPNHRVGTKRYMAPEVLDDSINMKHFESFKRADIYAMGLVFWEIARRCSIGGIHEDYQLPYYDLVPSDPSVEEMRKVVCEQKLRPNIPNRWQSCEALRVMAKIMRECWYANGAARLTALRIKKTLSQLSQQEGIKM
In short: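 TR-FRET kinase format: compound dose range 10 μM–25 pM equilibrated 60 min with human ALK5 and ULight-labelled topoisomerase 2α peptide in HEPES/MgCl2 buffer pH 7.5 with DTT. Reaction started with ATP (125 μM stock, 5× final), 60 min at 37° C, stopped with EDTA/Eu-anti-phospho antibody; pKi derived from pIC50 via Cheng-Prusoff.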

[2] = tested on: TGF-β-stimulated SMAD3 phosphorylation in BEAS-2B cells; assay: Cellular ALK5 potency assay, inhibition of TGF-β stimulated pSMAD3 formation in BEAS-2B cells; format: cell-based; conditions: Homo sapiens, inhibition of TGF-β (10 ng/mL) stimulated pSMAD3 formation, 1 hour compound incubation, read-out: BEAS2B pIC50 (converted)
In short: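 Phospho-SMAD3 was quantified by AlphaLISA in lysates of human lung epithelial BEAS-2B cells. Compound was added 1 h (37 °C, HEPES/BSA-supplemented HBSS) before a 30 min challenge with 10 ng/mL TGF-β. Values are pIC50 relative to stimulated cells without compound.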

Row | SMILES | Ki [1] | IC50 [2]
1 | NC1CCC(c2cnc3ccc(-c4c[nH]nc4-c4cc(Cl)ccc4F)nc3c2)CC1 (stereo not drawn) [Compound 1-98, 4-(6-(3-(5-chloro-2-fluorophenyl)-1H-pyrazol-4-yl)-1,5-naphthyridin-3-yl)cyclohexan-1-amine] | 3.98 to 31.6 nM | 200 to 1260 nM
2 | Fc1ccc(Cl)cc1-c1n[nH]cc1-c1ccc2ncc(C3CCNC3)cc2n1 (stereo not drawn) [Compound 1-99, 2-[3-(5-chloro-2-fluoro-phenyl)-1H-pyrazol-4-yl]-7-pyrrolidin-3-yl-1,5-naphthyridine] | 3.98 to 31.6 nM | 200 to 1260 nM
3 | O=Cc1cnc2ccc(-c3c[nH]nc3-c3cc(Cl)ccc3F)nc2c1 [Compound 1-101, 6-[3-(5-chloro-2-fluoro-phenyl)-1H-pyrazol-4-yl]-1,5-naphthyridine-3-carbaldehyde] | 0.398 to 3.16 nM | ≤ 20 nM
4 | Oc1cnc2ccc(-c3c[nH]nc3-c3cc(Cl)ccc3F)nc2c1 [Compound 1-102, 6-[3-(5-chloro-2-fluoro-phenyl)-1H-pyrazol-4-yl]-1,5-naphthyridin-3-ol] | 0.398 to 3.16 nM | ≤ 20 nM
5 | COC(=O)c1coc(-c2cnc3ccc(-c4c[nH]nc4-c4cc(Cl)ccc4F)nc3c2)n1 [Compound 1-104, methyl 2-[6-[3-(5-chloro-2-fluoro-phenyl)-1H-pyrazol-4-yl]-1,5-naphthyridin-3-yl]oxazole-4-carboxylate] | 0.398 to 3.16 nM | 25.1 to 158 nM
6 | Fc1ccc(Cl)cc1-c1n[nH]cc1-c1ccc2ncc(-c3cnc4n3CCNC4)cc2n1 [Compound 1-107, 2-[3-(5-chloro-2-fluoro-phenyl)-1H-pyrazol-4-yl]-7-(5,6,7,8-tetrahydroimidazo[1,2-a]pyrazin-3-yl)-1,5-naphthyridine] | 0.0398 to 0.316 nM | 25.1 to 158 nM
7 | Fc1ccc(Cl)cc1-c1n[nH]cc1-c1ccc2ncc(-c3nnn4c3CNCC4)cc2n1 [Compound 1-109, 2-[3-(5-chloro-2-fluoro-phenyl)-1H-pyrazol-4-yl]-7-(4,5,6,7-tetrahydrotriazolo[1,5-a]pyrazin-3-yl)-1,5-naphthyridine] | 0.0398 to 0.316 nM | 25.1 to 158 nM
8 | Fc1ccc(Cl)cc1-c1n[nH]cc1-c1ccc2ncc(-c3nnc4n3CCN4)cc2n1 [Compound 1-110, 2-[3-(5-chloro-2-fluoro-phenyl)-1H-pyrazol-4-yl]-7-(6,7-dihydro-5H-imidazo[2,1-c][1,2,4]triazol-3-yl)-1,5-naphthyridine] | 0.0398 to 0.316 nM | 200 to 1260 nM
9 | Fc1ccc(Cl)cc1-c1n[nH]cc1-c1ccc2ncc(-c3cn(Cc4cnc5c(c4)CNCC5)nn3)cc2n1 [Compound 1-112, 2-[3-(5-chloro-2-fluoro-phenyl)-1H-pyrazol-4-yl]-7-[1-(5,6,7,8-tetrahydro-1,6-naphthyridin-3-ylmethyl)triazol-4-yl]-1,5-naphthyridine] | 0.0398 to 0.316 nM | 25.1 to 158 nM
10 | Fc1ccc(Cl)cc1-c1n[nH]cc1-c1ccc2ncc(-c3ncn4c3CNCC4)cc2n1 [Compound 1-113, 2-[3-(5-chloro-2-fluoro-phenyl)-1H-pyrazol-4-yl]-7-(5,6,7,8-tetrahydroimidazo[1,5-a]pyrazin-1-yl)-1,5-naphthyridine] | 0.0398 to 0.316 nM | 25.1 to 158 nM
11 | Fc1ccc(Cl)cc1-c1n[nH]cc1-c1ccc2ncc(-c3ncc4n3CCNC4)cc2n1 [Compound 1-114, 2-[3-(5-chloro-2-fluoro-phenyl)-1H-pyrazol-4-yl]-7-(5,6,7,8-tetrahydroimidazo[1,5-a]pyrazin-3-yl)-1,5-naphthyridine] | 0.0398 to 0.316 nM | 25.1 to 158 nM
12 | Fc1ccc(Cl)cc1-c1n[nH]cc1-c1ccc2ncc(-c3[nH]nc4c3CNCC4)cc2n1 [Compound 1-115, 2-[3-(5-chloro-2-fluoro-phenyl)-1H-pyrazol-4-yl]-7-(4,5,6,7-tetrahydro-2H-pyrazolo[4,3-c]pyridin-3-yl)-1,5-naphthyridine] | 0.0398 to 0.316 nM | 25.1 to 158 nM
13 | Fc1ccc(Cl)cc1-c1n[nH]cc1-c1ccc2ncc(-c3cn4c(n3)CNCC4)cc2n1 [Compound 1-116, 2-[3-(5-chloro-2-fluoro-phenyl)-1H-pyrazol-4-yl]-7-(5,6,7,8-tetrahydroimidazo[1,2-a]pyrazin-2-yl)-1,5-naphthyridine] | 0.0398 to 0.316 nM | 25.1 to 158 nM
14 | Fc1ccc(Cl)cc1-c1n[nH]cc1-c1ccc2ncc(NCC3CCCNC3)cc2n1 (stereo not drawn) [Compound 1-117, 6-[3-(5-chloro-2-fluoro-phenyl)-1H-pyrazol-4-yl]-N-(3-piperidylmethyl)-1,5-naphthyridin-3-amine] | 0.398 to 3.16 nM | 200 to 1260 nM
15 | Fc1ccc(Cl)cc1-c1n[nH]cc1-c1ccc2ncc(-c3nnn4c3NCCC4)cc2n1 [Compound 1-118, 2-[3-(5-chloro-2-fluoro-phenyl)-1H-pyrazol-4-yl]-7-(4,5,6,7-tetrahydrotriazolo[1,5-a]pyrimidin-3-yl)-1,5-naphthyridine] | 0.0398 to 0.316 nM | ≤ 20 nM
16 | Fc1ccc(Cl)cc1-c1n[nH]cc1-c1ccc2ncc(-c3nc(C(F)(F)F)n4c3CNCC4)cc2n1 [Compound 1-119, 2-[3-(5-chloro-2-fluoro-phenyl)-1H-pyrazol-4-yl]-7-[3-(trifluoromethyl)-5,6,7,8-tetrahydroimidazo[1,5-a]pyrazin-1-yl]-1,5-naphthyridine] | 0.398 to 3.16 nM | 25.1 to 158 nM

More lines, main results first:

Row | Ki [1] | SMILES | IC50 [2]
17 | 0.0398 to 0.316 nM | Fc1ccc(Cl)cc1-c1n[nH]cc1-c1ccc2ncc(C3=CCNC3)cc2n1 [Compound 1-93, 2-[3-(5-chloro-2-fluoro-phenyl)-1H-pyrazol-4-yl]-7-(2,5-dihydro-1H-pyrrol-3-yl)-1,5-naphthyridine] | ≤ 20 nM
18 | ≤ 0.0316 nM | CC(C)NCCn1cc(-c2cnc3ccc(-c4c[nH]nc4-c4cc(Cl)ccc4F)nc3c2)cn1 [Compound 1-94, N-(2-(4-(6-(3-(5-chloro-2-fluorophenyl)-1H-pyrazol-4-yl)-1,5-naphthyridin-3-yl)-1H-pyrazol-1-yl)ethyl)propan-2-amine] | 25.1 to 158 nM
19 | 0.0398 to 0.316 nM | Fc1ccc(Cl)cc1-c1n[nH]cc1-c1ccc2ncc(-c3cnn(CCNCc4ccccc4)c3)cc2n1 [Compound 1-95, N-benzyl-2-[4-[6-[3-(5-chloro-2-fluoro-phenyl)-1H-pyrazol-4-yl]-1,5-naphthyridin-3-yl]pyrazol-1-yl]ethanamine] | 25.1 to 158 nM
20 | ≤ 0.0316 nM | CN(C)C1CC=C(c2cnc3ccc(-c4c[nH]nc4-c4cc(Cl)ccc4F)nc3c2)CC1 (stereo not drawn) [Compound 1-96, 4-(6-(3-(5-chloro-2-fluorophenyl)-1H-pyrazol-4-yl)-1,5-naphthyridin-3-yl)-N,N-dimethylcyclohex-3-en-1-amine] | ≤ 20 nM
21 | ≤ 0.0316 nM | CN1CC=C(c2cnc3ccc(-c4c[nH]nc4-c4cc(Cl)ccc4F)nc3c2)C1 [Compound 1-97, 2-[3-(5-chloro-2-fluoro-phenyl)-1H-pyrazol-4-yl]-7-(1-methyl-2,5-dihydropyrrol-3-yl)-1,5-naphthyridine] | ≤ 20 nM
22 | 0.0398 to 0.316 nM | Fc1ccc(Cl)cc1-c1n[nH]cc1-c1ccc2ncc(-c3nc4n(n3)CCNC4)cc2n1 [Compound 1-100, 2-(3-(5-chloro-2-fluorophenyl)-1H-pyrazol-4-yl)-7-(5,6,7,8-tetrahydro-[1,2,4]triazolo[1,5-a]pyrazin-2-yl)-1,5-naphthyridine] | 25.1 to 158 nM
23 | ≤ 0.0316 nM | CCOC(=O)Cn1cc(-c2cnc3ccc(-c4c[nH]nc4-c4cc(Cl)ccc4F)nc3c2)nn1 [Compound 1-103, ethyl 2-[4-[6-[3-(5-chloro-2-fluoro-phenyl)-1H-pyrazol-4-yl]-1,5-naphthyridin-3-yl]triazol-1-yl]acetate] | 25.1 to 158 nM
24 | 0.0398 to 0.316 nM | NC(=O)c1coc(-c2cnc3ccc(-c4c[nH]nc4-c4cc(Cl)ccc4F)nc3c2)n1 [Compound 1-105, 2-[6-[3-(5-chloro-2-fluoro-phenyl)-1H-pyrazol-4-yl]-1,5-naphthyridin-3-yl]oxazole-4-carboxamide] | 25.1 to 158 nM
25 | ≤ 0.0316 nM | Fc1ccc(Cl)cc1-c1n[nH]cc1-c1ccc2ncc(-c3cnc4n3CCN4)cc2n1 [Compound 1-106, 2-[3-(5-chloro-2-fluoro-phenyl)-1H-pyrazol-4-yl]-7-(6,7-dihydro-5H-imidazo[1,2-a]imidazol-3-yl)-1,5-naphthyridine] | 25.1 to 158 nM
26 | ≤ 0.0316 nM | Fc1ccc(Cl)cc1-c1n[nH]cc1-c1ccc2ncc(-c3cnn4c3CNCC4)cc2n1 [Compound 1-108, 2-[3-(5-chloro-2-fluoro-phenyl)-1H-pyrazol-4-yl]-7-(4,5,6,7-tetrahydropyrazolo[1,5-a]pyrazin-3-yl)-1,5-naphthyridine] | ≤ 20 nM
27 | ≤ 0.0316 nM | Fc1ccc(Cl)cc1-c1n[nH]cc1-c1ccc2ncc(-c3cn(Cc4c[nH]cn4)nn3)cc2n1 [Compound 1-111, 2-[3-(5-chloro-2-fluoro-phenyl)-1H-pyrazol-4-yl]-7-[1-(1H-imidazol-4-ylmethyl)triazol-4-yl]-1,5-naphthyridine] | 25.1 to 158 nM

From patent US11730720B2, “ALK5 inhibitors” (THERAVANCE BIOPHARMA R&D IP, LLC, priority 2018, dated 2023)
